Like-named read-outs stand apart in the source and are kept apart here.
Experiments:
[1] = system: Colletotrichum lagenarium; assay: Antifungal activity, serial dilution method; assay type: cell-based; conditions: Colletotrichum orbiculare
Cryptococcus neoformans = assay: Antimycotic activity, paper disk zone of inhibition; assay type: cell-based; conditions: 48 h, 3 mg/ml, 8 mm paper disk, 37° C. for 2 days, read-out: Diameter of inhibition zone
Protocol: The antimycotic activity values presented in Table 2 were assayed using Cryptococcus neoformans as the test organism. Thus, a paper disk (8 mm dia.) was dipped into an aqueous solution of the test compound (3 mg/ml), dried in the air and set in position on an agar medium. The medium was incubated at 37° C. for 2 days, at the end of which time the diameter of the zone of inhibition was measured. When the diameter of the zone was not larger than 8 mm, 8-10 mm, 10-20 mm and larger than 20 mm, the activity was judged as -, ±, + and ++, respectively.

Sclerotinia sclerotiorum = assay: Antifungal activity, serial dilution method; assay type: cell-based; conditions: kidney bean stem rot, 1% glucose-bouillon agar
Tetrahymena pyriformis W = assay: Antiprotozoal activity, broth dilution method; assay type: cell-based; conditions: 28° C. for 44 to 48 hours, pH 7.0
Protocol: The antiprotozoal activity values given in Table 2 were assayed using Tetrahymena pyriformis W as the test organism and an assay medium composed of 20 g tryptose peptone (Difco), 1 g yeast extract, 2 g glucose, 1000 ml distilled water and 10 ml 1 M phosphate buffer, pH 7.0. Thus, the strain was incubated at 28° C. for 44 to 48 hours and the minimal inhibitory concentration (MIC) of the compound (I) was determined by the broth dilution method.

Aspergillus niger = assay: Antifungal activity, serial dilution method; assay type: cell-based
Helminthosporium oryzae = assay: Antifungal activity, serial dilution method; assay type: cell-based; conditions: Bipolaris oryzae
Saccharomyces cerevisiae = assay: Antifungal activity, serial dilution method; assay type: cell-based
Penicillium niger = assay: Antifungal activity, serial dilution method; assay type: cell-based
Botrytis cinerea = assay: Antifungal activity, serial dilution method; assay type: cell-based
Pyricularia oryzae = assay: microbe, parasite or virus in culture; assay type: cell-based
[2] = Hemolysis test (method of Gottfried et al); assay type: cell-based; conditions: erythrocytes; in the presence of 5% human albumin; read-out: 50% hemolytic concentration
Description: The compound (I) is of relatively low toxicity and has generally low hemolytic activity. […] In these compounds (I), the influence of the length of chain R^1 varies with the other moiety of the molecule.

[3] = system: Helminthosporium sigmordeum; assay: Antifungal activity, serial dilution method; assay type: cell-based
[4] = system: human promyelocytic leukemia cell HL-60; assay: Cell proliferation inhibition and differentiation induction, human promyelocytic leukemia cell HL-60 (Test Example 1): proliferation; assay type: cell-based; conditions: HL-60, 120 h, 5 days' culture, read-out: Cell proliferation inhibitory activity GD50
Protocol: The cell proliferation inhibitory activity (GD50) and differentiation inducing activity of the compound of this invention against human promyelocytic leukemia cell HL-60 are shown in Table 1. The assays were performed by the method described for example in R. Gallo et al, Blood. vol. 54, No. 3, 713 (1979).

sarcoma 180 = assay: Antitumor activity against sarcoma 180; assay type: in vivo, ICR mice; conditions: 500 μg/mouse
MM46 mammarian carcinoma = assay: Antitumor activity against MM46 mammarian carcinoma; assay type: in vivo, C3 H/He mice; conditions: 250 μg/mouse/day, once daily, eight days in total; control average 14.2 days
Protocol: MM46 mammarian carcinoma cells (1×10^5) was transplanted intraperitoneally to each of five C3 H/He mice group. From five days to two days before the transplantation and from two day to five days after the transplantation, eight days in total. 250 μg/mouse/day of the test compound was administered to the test group, once daily. Survival period of three of the test group was not less than 60 days, and that of the remaining two was 23 days in average. On the other hand, the average survival period of mice of the control group was 14.2 days.

[5] = black mold, 1% glucose-bouillon agar, read-out: MIC
[6] = gray mold, 1% glucose-bouillon agar, read-out: MIC
[7] = cucumber anthracnose, 1% glucose-bouillon agar, read-out: MIC
[8] = brewer's yeast, 1% glucose-bouillon agar, read-out: MIC
[9] = blue mold, 1% glucose-bouillon agar, read-out: MIC
[10] = rice stem rot, 1% glucose-bouillon agar, read-out: MIC

CCCCCCCCCCCCCOCCOP(=O)([O-])OCC[N+](C)(C)C [Production Example 2, 2-Tridecyloxyethyl 2-trimethylammonioethyl phosphate]
MIC [1]: 3.12 µg/mL
zone of inhibition at 3000 µg/mL (Cryptococcus neoformans): > 20 mm
MIC (Sclerotinia sclerotiorum): 12.5 µg/mL
MIC (Tetrahymena pyriformis W): 0.4 µg/mL
MIC (Aspergillus niger; [5]): 12.5 µg/mL
MIC (Helminthosporium oryzae): 6.25 µg/mL
MIC (Saccharomyces cerevisiae): 6.25 µg/mL
MIC (Penicillium niger): 25 µg/mL
MIC (Botrytis cinerea; [6]): 12.5 µg/mL
MIC (Pyricularia oryzae): 6.25 µg/mL
HC50 [2]: ~80 µg/mL
MIC [3]: 6.25 µg/mL

CCCCCCCCCCCCCCOCCOP(=O)(O)OCCN [Production Example 5, 2-Tetradecyloxyethyl 2-aminoethyl phosphate]
MIC [1, 7]: 25 µg/mL
zone of inhibition at 3000 µg/mL (Cryptococcus neoformans): 8 to 10 mm
MIC (Sclerotinia sclerotiorum): 100 µg/mL
MIC (Tetrahymena pyriformis W): 4 µg/mL
MIC (Aspergillus niger; [5]): 25 µg/mL
MIC (Helminthosporium oryzae): > 100 µg/mL
MIC (Saccharomyces cerevisiae; [8]): 25 µg/mL
MIC (Penicillium niger; [9]): 50 µg/mL
MIC (Botrytis cinerea): 50 µg/mL
MIC (Pyricularia oryzae): 25 µg/mL
MIC [3, 10]: > 100 µg/mL

CCCCCCCCCCCCCCCCCCOCCOP(=O)(O)OCCN [Production Example 6, 2-Octadecyloxyethyl 2-aminoethyl phosphate]
zone of inhibition at 3000 µg/mL (Cryptococcus neoformans): 8 to 10 mm
MIC (Tetrahymena pyriformis W): > 4 µg/mL
IC50 [4]: 3 µg/mL

CCCCCCCCCCCCCCCCCCOCCOP(=O)([O-])OCC[n+]1ccccc1 [Production Example 10, 2-Octadecyloxyethyl 2-pyridinioethyl phosphate]
MIC (Tetrahymena pyriformis W): 4 µg/mL
IC50 [4]: 1.5 µg/mL
survival rate of the test group against the control group T/C (sarcoma 180): 310%
Average survival period (sarcoma 180; four days before ip transplantation of 1×10^5 cells, control 9.6 days): 29.8 days
Average survival period of the remaining two of the test group (five mice) (MM46 mammarian carcinoma): 23 days
Survival period of three of the test group (five mice) (MM46 mammarian carcinoma): not less than 60 days

CCCCCCCCCCCCCCCOCCOP(=O)([O-])OCC[n+]1ccccc1 [Production Example 8, 2-Pentadecyloxyethyl 2-pyridinioethyl phosphate]
zone of inhibition at 3000 µg/mL (Cryptococcus neoformans): 10 to 20 mm
MIC (Tetrahymena pyriformis W): 4 µg/mL
IC50 [4]: 3.4 µg/mL

CCCCCCCCCCCCCCOCCOP(=O)([O-])OCC[N+](C)(C)CCCC(=O)O [Production Example 12, 2-Tetradecyloxyethyl 2-[N-(3-carboxypropyl)-N,N-dimethyl]ammonioethyl phosphate]
MIC (Tetrahymena pyriformis W): 0.4 µg/mL
IC50 [4]: 1.5 µg/mL

CCCCCCCCCCCCCCOCCOP(=O)([O-])OCC[N+](C)(C)CCCC(=O)OC [Production Example 11, 2-Tetradecyloxyethyl 2-[N,N-dimethyl-N-(3-methoxycarbonylpropyl)]ammonioethyl phosphate]
MIC (Tetrahymena pyriformis W): 4 µg/mL
IC50 [4]: 2.5 µg/mL

CCCCCCCCCCCCCCOCCOP(=O)([O-])OCC[n+]1ccccc1 [Production Example 9, 2-Tetradecyloxyethyl 2-pyridinioethyl phosphate]
zone of inhibition at 3000 µg/mL (Cryptococcus neoformans): > 20 mm
MIC (Tetrahymena pyriformis W): 4 µg/mL
IC50 [4]: 4.1 µg/mL

CCCCCCCCCCCCCCOCCOP(=O)([O-])OCC[N+](C)(C)C [Production Example 1, 2-Tetradecyloxyethyl 2-trimethylammonioethyl phosphate]
MIC [1]: 3.12 µg/mL
zone of inhibition at 3000 µg/mL (Cryptococcus neoformans): > 20 mm
MIC (Sclerotinia sclerotiorum): 50 µg/mL
MIC (Tetrahymena pyriformis W): 0.4 µg/mL
MIC (Aspergillus niger): 12.5 µg/mL
MIC (Helminthosporium oryzae): 12.5 µg/mL
MIC (Saccharomyces cerevisiae): < 3.12 µg/mL
IC50 [4]: 3.8 µg/mL
MIC (Penicillium niger): 12.5 µg/mL
MIC (Botrytis cinerea): 12.5 µg/mL
MIC (Pyricularia oryzae): 3.12 µg/mL
MIC [3]: 3.12 µg/mL

CCCCCCCCCCCCOCCOP(=O)([O-])OCC[N+](C)(C)C [Production Example 4, 2-Dodecyloxyethyl 2-trimethylammonioethyl phosphate]
MIC [1, 7]: 6.25 µg/mL
zone of inhibition at 3000 µg/mL (Cryptococcus neoformans): 10 to 20 mm
MIC (Sclerotinia sclerotiorum): 100 µg/mL
MIC (Tetrahymena pyriformis W): 0.4 µg/mL
MIC (Aspergillus niger; [5]): 25 µg/mL
MIC (Helminthosporium oryzae): 12.5 µg/mL
MIC (Saccharomyces cerevisiae; [8]): 25 µg/mL
MIC (Penicillium niger; [9]): 25 µg/mL
MIC (Botrytis cinerea; [6]): 25 µg/mL
MIC (Pyricularia oryzae): 12.5 µg/mL
MIC [3, 10]: 25 µg/mL

CCCCCCCC/C=C\CCCCCCCCOCCOP(=O)([O-])OCC[N+](C)(C)C [Production Example 3, 2-Oleyloxyethyl 2-trimethylammonioethyl phosphate]
MIC [1]: 6.25 µg/mL
zone of inhibition at 3000 µg/mL (Cryptococcus neoformans): > 20 mm
MIC (Sclerotinia sclerotiorum): 100 µg/mL
MIC (Tetrahymena pyriformis W): 0.4 µg/mL
MIC (Aspergillus niger; [5]): 25 µg/mL
MIC (Helminthosporium oryzae): 6.25 µg/mL
MIC (Saccharomyces cerevisiae): 12.5 µg/mL
MIC (Penicillium niger; [9]): 50 µg/mL
MIC (Botrytis cinerea; [6]): 3.12 µg/mL
MIC (Pyricularia oryzae): 1.56 µg/mL
MIC [3]: 6.25 µg/mL

CCCCCCCCCCCCCCCOCCOP(=O)([O-])OCC[N+](C)(C)C [Production Example 7, 2-Pentadecyloxyethyl 2-trimethylammonioethyl phosphate]
zone of inhibition at 3000 µg/mL (Cryptococcus neoformans): 10 to 20 mm
MIC (Tetrahymena pyriformis W): ≤ 1 µg/mL
IC50 [4]: 1.2 µg/mL

— US4542219A, “Certain heterocyclic ammonio phosphate derivatives” (Takeda Chemical Industries, Ltd., priority 1981, dated 1985)
